Laboratory results reported in patent US20220089540A1 (Board of Trustees of Michigan State University, priority 2019, published 2022).
“And” between values parts separate entries of the source, which are not always exact repeats. Identical values can stand only once. Like-named read-outs stand apart in the source and are kept apart here.

Legend:
PD-L1 = PD-L1 induction in macrophages or RAW264.7 cells with cancer cell conditioned media (flow cytometry); type: cell-based, mouse; conditions: for PD-L1: Table 2, Control 39.8, higher numbers indicate better upregulation; for PD-L1 Levels: Table 4, Control 43.3
Method: RAW 264.7 mouse macrophage-like (ATCC) and E18-14C-27 (Wu et al., Cancer Res. 62, 6376-6380 (2002)) cells were cultured in DMEM supplemented with 10% fetal bovine serum (FBS). RAW 264.7 cells were cultured at 50000/well in a 6 well plate for 24 hours to determine PD-L1 levels. E18-14C-27 cells were cultured for 72 hours in the presence of LG268 for protein levels. Conditioned media was collected from E18-14C-27 at 60-70% confluence for 24 hours; media was then collected and centrifuged at 900 rpm for 5 minutes to eliminate any cell debris.
For PD-L1 staining, RAW 264.7 cells were plated at 25000 cells/ml in 6 well plates for 24 hours before adding conditioned media from E18-14C-27 and LG268. RAW 264.7 cells were cultured for additional 24 hours with E18-14C-27 conditioned media and LG268. […] THP-1 cells were stained and analyzed for the levels of PD-L1 following the same protocol.
Inhibitory receptors on lymphocytes such as PD-1 (programmed cell death protein 1) are important immune checkpoints that protect against autoimmunity as the interaction between PD-L1 (ligand) and the PD-1 receptor expressed on immune cells suppresses T cell activity. Immuno-oncology is revolutionizing cancer treatment, and enormous research efforts are ongoing to identify drugs that upregulate PD-L1 so that they can be combined with checkpoint inhibitors to boost efficacy. Macrophages or RAW264.7 cells are treated with conditioned media from cancer cells and rexinoids, and PD-L1 expression determined by flow cytometry. Higher numbers indicate better upregulation of PD-LI.
Using methods described herein, macrophages or RAW264.7 cells were treated with selected rexinoids and with conditioned media from cancer cells. Structures of the rexinoids are shown below.
PD-L1 expression was determined by flow cytometry.

[1] = test system: inducible nitric oxide synthase (iNOS); experiment: iNOS suppression / NO assay in LPS-stimulated macrophages or RAW264.7 cells (Griess reaction); type: cell-based, mouse
Method: Macrophages or RAW264.7 like-cells were treated with various concentrations of rexinoids and stimulated with lipopolysaccaride (LPS) to activate inducible nitric oxide synthase (iNOS) to produce nitric oxide. This in vitro iNOS assay was rapid, reproducible, quantitative and predictive. Nitric oxide is implicated in the apoptosis of cancer cells via regulation of RXRs. There is a tight correlation between the % reduction of iNOS and efficacy in preclinical lung cancer models. Lower numbers indicate higher efficacy.
RAW264.7 cells were incubated with 300 nM rexinoids and stimulated with 1-2 ng/ml lipopolysaccaride (LPS) for 24 hours to activate inducible nitric oxide synthase (iNOS) to produce nitric oxide. Nitric oxide released into the media was measured by the Griess reaction.
Also, for Table 6, the iNOS suppression is the percent of the LPS-stimulated control where the compounds were measured at 100 nM or 300 nM.
Macrophages or RAW264.7 cells were treated with various concentrations of rexinoids listed in Table 7 and stimulated with lipopolysaccaride (LPS) to activate inducible nitric oxide synthase (iNOS) to produce nitric oxide. Nitric oxide (NO) is implicated in the apoptosis of cancer cells via regulation of RXRs. There is a tight correlation between the % reduction of iNOS and efficacy in preclinical lung cancer models. The in vitro iNOS assay is rapid, reproducible, quantitative and predictive, as NO production is measured in culture medium using the Griess reaction. Values are either presented as % inhibition or IC50 values.

SREBP = SREBP induction in human liver (HepG2) cells, RT-PCR; type: cell-based; set-up: key to SREBP: fold induction vs DMSO control; conditions: for SREBP: 300 nM, Control 1.00, lower numbers indicate better safety, Table 2; for SREBP activation: fold induction compared to DMSO, several values per cell, Table 6
Method: The SREBP transcription factor is involved in triglyceride synthesis, and its activation correlates with increased triglycerides in vivo. […] Lower numbers indicate better safety. […] Lower numbers indicate better safety. Also, for Table 6, SREBP activation was measured as fold induction compared to DMSO, where a lower value indicates the compound is an improvement over a control.

LogD at pH 7.4 = type: physicochemical; conditions: pH 7.4 buffer
Method: Note that for Table 6, Log D is the distribution constant, which is descriptor of the lipophilicity of a molecule. This was determined using an aqueous phase that was adjusted to pH 7.4 using a buffer.

human RXRa = target: T1, human RXRa (Homo sapiens, UniProt P19793); experiment: RXR activation luciferase reporter assay; type: cell-based; conditions: luciferase, Control 0, higher numbers indicate higher potency
T1 sequence (P19793 1-462): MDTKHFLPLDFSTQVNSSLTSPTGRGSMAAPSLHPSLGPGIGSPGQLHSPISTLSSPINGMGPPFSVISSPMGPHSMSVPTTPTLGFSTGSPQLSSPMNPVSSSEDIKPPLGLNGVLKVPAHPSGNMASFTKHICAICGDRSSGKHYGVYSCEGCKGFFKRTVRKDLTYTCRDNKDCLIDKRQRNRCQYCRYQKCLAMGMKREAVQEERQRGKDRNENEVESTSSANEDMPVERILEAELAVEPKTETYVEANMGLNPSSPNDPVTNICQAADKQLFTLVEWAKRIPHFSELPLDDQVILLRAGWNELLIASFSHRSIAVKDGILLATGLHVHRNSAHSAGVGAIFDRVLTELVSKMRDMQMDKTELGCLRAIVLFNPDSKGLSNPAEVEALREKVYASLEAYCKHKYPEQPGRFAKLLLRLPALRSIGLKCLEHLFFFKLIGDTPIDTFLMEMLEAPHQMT
Source text: Rexinoids are agonists for the retinoid X receptors (RXRs). In this assay, the human RXRa promoter is functionally linked to a luciferase reporter gene. Changes in luciferase expression served as a sensitive surrogate measure of RXR activity. Higher numbers indicate higher potency.

[2] = test system: mammary gland tumors of MMTV-Neu mice; experiment: MMTV-Neu mouse model of HER2 positive breast cancer, rexinoid in diet; conditions: 100 mg/kg diet; LG268 5 days, CW-V-125 10 days; western blot and/or immunohistochemistry
Method: Tumors or mammary glands were homogenized in EBC buffer (1M Tris pH 8, 5M NaCl) with the same protease inhibitors and 10% NP-40 and incubated on ice for 30 min. Protein concentrations were determined by the BCA assay (Sigma-Aldrich). Proteins were resolved by SDS-PAGE, transferred to a nitrocellulose membrane and analyzed with the following antibodies: vinculin, p-STAT1, p-STAT3, p-STAT5 and mouse and rabbit secondary antibodies (Cell Signaling); PD-1, CD206 (Abcam); PD-L1 (R&D). ImageJ was used to quantify the immunoblots, and results were plotted and statistically analyzed using Prism 6. All images shown are representative of 3 independent experiments.
One third of the tumor, mammary gland and spleen removed from MMTV-neu or MMTV-PyMT mice were minced separately and incubated in digestion media consisting of collagenase (300 U/ml, Sigma), dispase (1 U/ml, Worthington), and DNAse (2 U/ml, Calbiochem) for 30 minutes at 37° C. with stirring. Cells were then passed through a 40 μm cell strainer (BD Falcon), and red blood cells eliminated with lysis solution. […] Propidium iodide staining was used to exclude dead cells.
One third of the tumor, spleen and one mammary was removed from MMTV-neu and PyMT mice and fixed in 10% phosphate-buffered formalin for 48 hours, embedded in paraffin blocks, and sectioned (5-6 μm). Hydrogen peroxide was used to quench endogenous peroxidase activity. Sections were immunostained with antibodies raised against CD206 (1:200, Abcam), Gr1 (1:40, BM8, R&D), CD8 (1:40, Biolegend), FOXP3 (1:50, EBiosciences), PD-1 (1:100, Abcam), PD-L1 (1:50, Abcam), cleaved caspase 3 (Cell Signaling) and visualized with biotinylated anti-rabbit or anti-rat secondary antibodies (Cell Signaling or Vector Labs). Signal was detected using a DAB substrate (Cell Signaling) following the manufacturer's recommendations. Sections were counterstained with hematoxylin (Vector Labs).
Both rexinoid treatments were 100 mg/kg of diet, which is equivalent to 25 mg/kg of body weight (FIG. 1B).

[3] = Mus musculus, RAW264.7, read-out: NO Assay
[4] = Mus musculus, RAW264.7, 24 h, at 300 nM, percent of the LPS-stimulated control, lower is better, Table 6, read-out: iNOS suppression
[5] = Mus musculus, RAW264.7, 24 h, read-out: iNOS (300 nM)
[6] = Mus musculus, RAW264.7, 125 nM, Control 100, lower numbers indicate higher efficacy, read-out: NO Assay
[7] = Mus musculus, RAW264.7, 500 nM, Control 100, lower numbers indicate higher efficacy, read-out: NO Assay

SMILES | PD-L1 (PD-L1; 100 nM) | activity at 0.125 µM [1, 3] [%] | activity at 0.5 µM [1, 3] [%] | SREBP (SREBP) | logD (LogD at pH 7.4) | other results
CCN(c1cc(C(F)(F)F)cc(C(F)(F)F)c1)c1ccc(C(=O)O)cn1 [Compound 15, 6-{[3,5-bis(trifluoromethyl)phenyl](ethyl)amino}pyridine-3-carboxylic Acid] | 34.8 | 87 | 27.9 | 1.11 |  | 
C=C(c1ccc(C(=O)O)cc1)c1cc(C(C)C)c(OCC)cc1C [drawing 115] |  |  |  |  | 2.6 | activity at 0.3 µM [1, 4]: 45%; SREBP activation (SREBP): 1.4 fold induction
CCN(c1cc(C(C)(C)C)cc(C(C)(C)C)c1)c1ncc(C(=O)O)cn1 [Compound 10, 2-[(3,5-di-tert-butylphenyl)(ethyl)amino]pyrimidine-5-carboxylic Acid] | 32 | 48.6 | 19 | 1.44 |  | RXR assay (human RXRa; 100 nM): 1007; RXR assay (human RXRa; 2500 nM): 17963
CC(C)(C)c1cc(-n2c(C(F)(F)F)nc3cc(C(=O)O)ccc32)cc(C(C)(C)C)c1 [Compound 7, 1-(3,5-di-tert-butylphenyl)-2-(trifluoromethyl)-1H-1,3-benzodiazole-5-carboxylic Acid] | 44.2 | 38.7 | 23.6 | 1.57 |  | activity at 0.3 µM [1, 5]: 55%
C=C(c1ccc(C(=O)O)cc1)c1cc(C(C)(C)C)cc(C(C)(C)C)c1 [drawing 116] |  |  |  |  | 3.8 | activity at 0.3 µM [1, 4]: 61%
CCN(c1cc(C(C)(C)C)cc(C(C)(C)C)c1)c1ncc(C(=O)O)cn1 [drawing 106] |  |  |  |  | 2.3 | activity at 0.3 µM [1, 4]: 55%; SREBP activation (SREBP): 3.5 fold induction and 1.8 fold induction
CCN(c1ccc(C(=O)O)cn1)c1cc(C(C)(C)C)ccc1C [Compound 12, 6-[(5-tert-butyl-2-methylphenyl)(ethyl)amino]pyridine-3-carboxylic Acid] | 45.8 | 44.2 | 16.7 | 1.69 |  | 
CCN(c1cc(C(C)(C)C)cc(C(C)(C)C)c1)c1ccc(C(=O)O)cn1 [Compound 9, 6-[(3,5-di-tert-butylphenyl)(ethyl)amino]pyridine-3-carboxylic Acid] | 39.7 | 76.3 | 26.8 | 2.70 |  | activity at 0.3 µM [1, 5]: ~25%
C=C(c1ccc(C(=O)O)cc1)c1cc(C(C)C)c(OC(C)C)cc1C [drawing 114] |  |  |  |  | 3.1 | activity at 0.3 µM [1, 4]: 40%; SREBP activation (SREBP): 4.7 fold induction
CC(/C=C/[C@@H]1C[C@]1(C)c1ccc2c(c1)C(C)(C)CCC2(C)C)=C\C(=O)O [VTP194204] |  |  |  |  |  | PD-L1 Levels (PD-L1; 100 nM): 63.8; PD-L1 Levels (PD-L1; 1000 nM): 70.9
C=C(c1ccc(C(=O)O)cc1)c1ccc(OCC(C)C)c(C(C)C)c1 [drawing 110] |  |  |  |  | 3 | activity at 0.3 µM [1, 4]: 75%; SREBP activation (SREBP): 2 fold induction
CCCCN(c1cc(C(C)(C)C)cc(C(C)(C)C)c1)c1ccc(C(=O)O)cn1 [Compound 19] | 50.2 |  |  | 4.77 |  | activity at 0.125 µM [1, 6]: 45.6%; activity at 0.5 µM [1, 7]: 9.4%; RXR assay (human RXRa; 100 nM): 13422; RXR assay (human RXRa; 2500 nM): 24350
CC(C)(C)c1cc(N(CC2CC2)c2ccc(C(=O)O)cn2)cc(C(C)(C)C)c1 [drawing 118] |  |  |  |  | 3.4 | activity at 0.1 µM ([1]; Mus musculus, RAW264.7, 24 h, at 100 nM, percent of the LPS-stimulated control, lower is better, Table 6): 19%; activity at 0.3 µM [1, 4]: 13%
CC(C)(C)c1cc(N(CC2CC2)c2ccc(C(=O)O)cn2)cc(C(C)(C)C)c1 [Compound 14, 6-[(cyclopropylmethyl)(3,5-di-tert-butylphenyl)amino]pyridine-3-carboxylic Acid] | 46.2 | 78.2 | 25.9 | 2.37 |  | 
CCN(c1ccc(C(=O)O)cn1)c1cc2c(cc1C)C(C)(C)CCC2(C)C [CW-V-125] |  |  |  |  |  | PD-L1 Levels (PD-L1; 100 nM): 72.5; PD-L1 Levels (PD-L1; 1000 nM): 69.9; PD-L1 expression in tumors vs control [2]: increases
CCN(c1ccc(C(=O)O)cc1)c1cc(C(C)(C)C)cc(C(C)(C)C)c1 [Compound 8, 4-[(3,5-di-tert-butylphenyl)(ethyl)amino]benzoic Acid] | 31.2 | > 80 | 31.5 | 1.95 |  | RXR assay (human RXRa; 100 nM): 1009; RXR assay (human RXRa; 2500 nM): 23514
C=C(c1ccc(C(=O)O)cc1)c1cc(C(C)(C)C)cc(C(C)(C)C)c1 [Compound 3, 4-[1-(3,5-di-tert-butylphenyl)ethenyl]benzoic Acid] | 26.5 | 42.5 | 19.8 | 1.14 |  | activity at 0.3 µM [1, 5]: ~65%; RXR assay (human RXRa; 100 nM): 523; RXR assay (human RXRa; 2500 nM): 8163
CC(C)(C)c1cc(C(C)(C)C)cc(C2(c3ccc(C(=O)O)cn3)CC2)c1 |  |  |  |  | 2.8 | 
C/C(=C/C=C/C(C)=C/C(=O)O)c1cc(C(C)(C)C)cc(C(C)(C)C)c1OCC(F)F [LG101506, reference compound] | 67.2 |  |  | 1.12 |  | NO Assay ([1]; 125 nM, Control 100, lower numbers indicate higher efficacy): 56.3; NO Assay ([1]; 500 nM, Control 100, lower numbers indicate higher efficacy): 16.3; RXR assay (human RXRa; 100 nM): 1077; RXR assay (human RXRa; 2500 nM): 558
CCCN(c1cc(C(C)(C)C)cc(C(C)(C)C)c1)c1ccc(C(=O)O)cn1 [Compound 13, 6-[(3,5-di-tert-butylphenyl)(propyl)amino]pyridine-3-carboxylic Acid] | 67.9 |  |  | 2.44 |  | activity at 0.125 µM [1, 6]: 94.5%; activity at 0.5 µM [1, 7]: 32%; RXR assay (human RXRa; 100 nM): 16063; RXR assay (human RXRa; 2500 nM): 26703
Cc1cc(OCC(C)C)c(C(C)C)cc1C1(c2ccc(C(=O)O)cn2)CC1 |  |  |  |  | 2.6 | 
CCN(c1ccc2c(c1)C(C)(C)CCC2(C)C)c1ncc(C(=O)O)cn1 [CW-V-127] |  |  |  |  |  | PD-L1 Levels (PD-L1; 100 nM): 65.1; PD-L1 Levels (PD-L1; 1000 nM): 64.5
